Assay results taken from PubChem BioAssay AID2060326 (Molecular Pharmacology Branch, DTP, NCI, 2025).
“And” between values parts separate entries of the source, which are not always exact repeats. Identical values can stand only once.

System: MDA-MB-468 multi-cell spheroids, viability
Test: Anticancer human tumor MDA-MB-468 cell line growth inhibition [IpAb];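 further: spheroids exposed to agents for seven days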;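 on viability, T/C: 100% = DMSO vehicle control viability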
Conditions: for viability, T/C: stronger effect = lower value
Text: Combinatorial screen of targeted agents with ipatasertib and abemaciclib in multi-cell type tumor spheroids
A high-throughput screen of multi-cell type tumor spheroids was designed to identify active combinations of targeted small molecules and ipatasertib or abemaciclib. Complex spheroids include a stromal component modeled by human endothelial cells (HUVEC) and fibroblasts modeled by human mesenchymal stem cells (MSCs). The concentration ranges selected for each drug and investigational agent were based upon clinically achievable concentrations if the clinical Cmax of the agent was known.
Compounds. The drugs and investigational agents: ipatasertib (NSC767898), abemaciclib(NSC768073), selumetinib (NSC741078), trametinib (758246), adavosertib (NSC754352), everolimus (NSC733504), sapanisertib (NSC764658), vemurafenib (NSC761431), venetoclax (NSC766270), copanlisib (NSC809693), apelisib (NSC765974), palbociblib (NSC758247), vemurafenib (NSC761431), dabrafenib (NSC764134), ravoxertinib (NSC781343), BMS-387032 (NSC767048), sotorasib (NSC818433), talazoparib (NSC767125) and afursertib (NSC778305), were obtained from the National Cancer Institute (NCI) Developmental Therapeutics Program Chemical Repository. The FDA-approved anticancer drug set is available from the NCI Developmental Therapeutics Program. […] The stock solutions were prepared in dimethyl sulfoxide (DMSO, Sigma-Aldrich, St. Louis, MO, cat. D2650) at 800-fold the tested concentration and stored at -70 degrees C prior to their use. All drugs and investigational agents were tested over a range starting from a high concentration at or near the clinical Cmax and decreasing in half-log increments. If the clinical Cmax for an agent had not been determined, the highest concentration tested was 10 microM.
NCI60 Cell Culture. NCI60 cell lines were obtained from the NCI Developmental Therapeutics Program Tumor Repository. For each lot of cells, the Repository performed Applied Biosystems AmpFLSTR Identifiler testing with PCR amplification to confirm consistency with the published Identifier STR profile for each cell line. Cells were kept in continuous culture for no more than 20 passages. The optimal seeding densities for each of the cell lines at each time point assessed were determined prior to performing the concentration response studies. Briefly, the NCI60 human tumor lines were grown as monolayers in RPMI 1640 medium supplemented with 10% FBS and 2 mmol/L L-glutamine.
An additional 9 lines were from the NCI60 cell line panel including MDA-MB-231 breast carcinoma, MDA-MB-468 breast carcinoma, MCF7 breast carcinoma, Hs578T breast carcinoma, MALME-3M melanoma, SK-MEL-2 melanoma, SK-OV-3 ovarian carcinoma, DU-145 prostate carcinoma, PC-3 prostate carcinoma, all cell lines along with major genetic alterations are listed on Table 2. Pooled donor human umbilical vein endothelial cells (HUVEC, Lonza, cat. CC-2519) and human mesenchymal stem cells (hMSC, Lonza, cat. PT-2501) were purchased from Lonza (Walkersville, MD).
PDMR cell lines were grown in complete medium (DC medium): Dulbecco's modified Eagle's medium (DMEM)/F12 supplemented with 5% fetal bovine serum (FBS), 2 mM L-glutamine, 100 U/mL penicillin and 100 µg/ml streptomycin, 0.4 µg/ml hydrocortisone, 10 ng/ml epidermal growth factor (EGF) recombinant human protein, 24 µg/mL adenine, and 0.1 mg/mL primocin. During culture from frozen stock vials, PDMR cells were cultured in the same medium containing 10 µM Y-27632 (see Table 3). The PDCs were cultured in complete DMEM/F12 media without 10 microM Y-27632 dihydrochloride for at least two passages prior to the screen. The pooled donor HUVEC and hMSC were cultured in endothelial cell growth medium 2 (PromoCell, Heidelberg, Germany, cat. C-22011) and mesenchymal stem cell growth medium 2 (PromoCell, cat. C-28009), respectively. For all experiments, HUVEC and hMSC were used at passages </=5.
[…]

[1] = compound alone, run of 05/18/2021

| Compound | viability, T/C (compound 0.0316 µM) | viability, T/C (compound 0.1 µM) | viability, T/C (compound 0.316 µM) | viability, T/C (compound 1 µM) | viability, T/C (compound 3.16 µM) | viability, T/C (compound 10 µM) | IC50 (curve of compound) | further results |
| --- | --- | --- | --- | --- | --- | --- | --- | --- |
| C=CC(=O)N1CCN(c2nc(=O)n(-c3c(C)ccnc3C(C)C)c3nc(-c4c(O)cccc4F)c(F)cc23)C(C)C1 (stereo not drawn) | 90.5% and 115% | 103% and 119% | 121% and 129% | 105% | 93.5% and 110% | 35.1% and 37.1% | 7.49 µM and 8.2 µM |  |
| C=CCn1c(=O)c2cnc(Nc3ccc(N4CCN(C)CC4)cc3)nc2n1-c1cccc(C(C)(C)O)n1 | 80.6% and 99.8% | 94.4% and 96.1% | 77.9% and 78.9% | 6.3% and 7.75% | 3.1% and 3.7% | 2.62% and 3.3% | 0.495 µM and 0.505 µM |  |
| CC(=O)c1c(C)c2cnc(Nc3ccc(N4CCNCC4)cn3)nc2n(C2CCCC2)c1=O |  |  |  |  |  |  | > 0.3 µM | viability, T/C (compound 0.000949 µM): 93.7% and 99%; viability, T/C (compound 0.003 µM): 91.4% and 97.5%; viability, T/C (compound 0.00949 µM): 92% and 93.8%; viability, T/C (compound 0.03 µM): 88.1% and 91.8%; viability, T/C (compound 0.0949 µM): 92.4% and 81.4%; viability, T/C (compound 0.3 µM): 90.2% and 73.4% |
| CC(C)(C)c1cnc(CSc2cnc(NC(=O)C3CCNCC3)s2)o1 |  |  |  |  |  |  | 0.0832 µM and 0.123 µM | viability, T/C (compound 0.00949 µM): 90.5% and 95.1%; viability, T/C (compound 0.03 µM): 98.2% and 96.8%; viability, T/C (compound 0.0949 µM): 44.3% and 64.7%; viability, T/C (compound 0.3 µM): 0.55% and 0.39%; viability, T/C (compound 0.949 µM): 0.44% and 0.29%; viability, T/C (compound 3 µM): 0.51% and 0.39% |
| CC(C)NCC(C(=O)N1CCN(c2ncnc3c2C(C)CC3O)CC1)c1ccc(Cl)cc1 (stereo not drawn) |  | 91.9% [middle of 13 runs] |  | 54.4% [middle of 13 runs] | 35.1% [middle of 13 runs] | 18.4% [middle of 13 runs] |  | IC50 [1]: 1.25 µM [middle of 12 runs] |
| CC(C)n1nc(-c2ccc3oc(N)nc3c2)c2c(N)ncnc21 | 23.8% and 23.2% | 9.32% and 10.4% |  |  |  |  | 0.0104 µM and 0.012 µM | viability, T/C (compound 0.000316 µM): 99% and 104%; viability, T/C (compound 0.001 µM): 84.2% and 89.2%; viability, T/C (compound 0.00316 µM): 74% and 80.1%; viability, T/C (compound 0.01 µM): 53.6% and 57.9% |
| CC1(C)CCC(CN2CCN(c3ccc(C(=O)NS(=O)(=O)c4ccc(NCC5CCOCC5)c([N+](=O)[O-])c4)c(Oc4cnc5[nH]ccc5c4)c3)CC2)=C(c2ccc(Cl)cc2)C1 | 111% and 107% | 106% and 94.5% | 102% and 89.2% | 95.9% and 85.8% | 73% and 52.9% | 10% and 5.86% | 4.77 µM and 3.52 µM |  |
| CCCS(=O)(=O)Nc1ccc(F)c(C(=O)c2c[nH]c3ncc(-c4ccc(Cl)cc4)cc23)c1F | 99.5% and 107% | 99% and 91.6% | 95% and 103% | 100% and 109% | 97.5% and 106% | 66.3% and 75.8% | > 10 µM |  |
| CCN1CCN(Cc2ccc(Nc3ncc(F)c(-c4cc(F)c5nc(C)n(C(C)C)c5c4)n3)nc2)CC1 |  | 102% [middle of 13 runs] |  |  |  |  |  | IC50 [1]: > 1 µM |
| COc1c(OCCCN2CCOCC2)ccc2c3n(c(=NC(=O)c4cnc(N)nc4)nc12)CCN3 | 73% and 72.7% | 63.9% and 66.5% | 25.6% and 23.6% | 4.06% and 3.22% |  |  | 0.141 µM and 0.139 µM | viability, T/C (compound 0.00316 µM): 89% and 95.1%; viability, T/C (compound 0.01 µM): 95% and 91.5% |
